Experimental data reported in paper PMC9867241, “Antioxidant and Cytotoxic Activity of New Polyphenolic Derivatives of Quinazolin-4(3H)-one: Synthesis and In Vitro Activities Evaluation” (Pharmaceutics, 2022).

What was measured:
[1] = NO˙ radical scavenging assay (Griess reaction); settings: PBS pH 7.4, sodium nitroprusside
Experimental: The scavenging of the NO˙ radical was performed by applying previously reported protocols. The in vitro protocol describes the decomposition of sodium nitroprusside in phosphate buffered saline (PBS) at pH = 7.4. The NO˙ radicals would be involved in a Griess reaction if they were not captured by the tested compounds. This reaction results from the formation of an azo dye, with maximum absorption at 546 nm. This azo dye is formed from sulfanilic acid and naphthyl ethylenediamine dichloride.

[2] = Phosphomolybdate assay for total antioxidant capacity (TAC); design: concentration or dose not given beside the values; settings: for TAC, % of Activity of Trolox: relative to Trolox; for TAC, % of Activity of Ascorbic Acid: relative to ascorbic acid
Excerpt: Using the phosphomolybdate assay, we determined the total antioxidant capacity (TAC) of the tested compounds. We measured the solutions’ absorbances against a blank sample at λ = 695 nm, using a previously reported procedure by our group, based on initial literature reports. Using Equation (4), we calculated the TAC of 5a–d and 6a–d compounds.
At acidic pH, the tested compounds transfer one electron to Mo^6+ to reduce it to Mo^5+.

[3] = Reducing power (RP) assay; design: concentration or dose not given beside the values; settings: for RP, % of Activity of Trolox: relative to Trolox; for RP, % of Activity of Ascorbic Acid: relative to ascorbic acid
Experimental: Herein, the iron (III) is not free in the solution as it was in the FRAP assay and is complexed by cyanide ions. The evaluation of the reducing power (RP) was performed at a pH closer to neutral (pH = 6.6); this is different from the FRAP test, which is performed in an acidic environment. Against a blank sample, the absorbances were measured at λ = 700 nm. The followed protocol was based on the adaptation of previously reported protocols and was previously reported by our group. Using Equation (4), we calculated the reducing power of the 5a–d and 6a–d compounds as a percentage of the reference compounds activity.
The evaluated compounds can reduce ferricyanide to ferrocyanide, in the presence of ferric ions, resulting in the Perl’s Prussian which gives blue. The higher the percentage of reducing power, the higher was the absorbance that was measured due to a higher amount of colored complex resulting from the reaction.

[4] = Cupric reducing antioxidant capacity (CUPRAC) assay; design: concentration or dose not given beside the values; settings: for CUPRAC, % of Activity of Trolox: relative to Trolox; for CUPRAC, % of Activity of Ascorbic Acid: relative to ascorbic acid
Experimental: The ability to donate electrons was evaluated for the compounds 5a–d and 6a–d, by the CUPRAC (CUPric reducing antioxidant capacity) method. The absorbance was measured against a blank sample, at λ = 450 nm. The assay was performed based on our group’s previous report by the adaptation of the initial report of Alam et al., Özyürek et al. and Apak et al.. With the use of Equation (4), the cupric ion reduction by compounds 5a–d and 6a–d was expressed as a percentage of the reference compound activity.
The Cu^2+ ions are reduced to Cu^+ ions by the electron-donating compounds. The Cu^+ ions are chelated by neocuproine, giving a colored complex with absorbance proportional to the quantity of Cu^+ ions that resulted.

[5] = Fe^2+ chelation assay (ferrozine competition)
Experimental: In the protocol used for evaluating the Fe^2+ chelating ability of the compounds, the absorbances of the solutions were determined at λ = 562 nm, against a blank sample. The method was adapted from the initial report of Benzie and Strain et al., which was previously reported by our group. Using Equation (5), we calculated the iron chelation capacities of the 5a–d and 6a–d compounds:(5) iron chelation (%)=control absorbance−sample absorbance/control absorbance×100
The chelating capacity of the tested compounds of Fe^2+ was evaluated based on their competition for Fe^2+ with ferrozine.

[6] = system: A549 (lung adenocarcinoma) cells; assay: Cytotoxicity, Alamar blue assay, A549 cells; type: cell-based; settings: Homo sapiens, 24 h exposure
Excerpt: (§1) Normal human foreskin (BJ) fibroblasts and two types of cancer cells, namely A549 (lung adenocarcinoma) and LNCaP (prostate carcinoma) purchased from American Type Culture Collection (Manassas, VA, USA), were used in the experiments. Each cell line was maintained in a different culture medium, depending on the metabolic necessities of the cells. BJ cells were maintained in Dulbecco’s modified Eagle’s medium (DMEM) with low glucose. A549 cells were maintained in DMEM with high glucose […], while LNCaP cells were grown in Roswell Park Memorial Institute (RPMI) 1640 medium with high glucose (5 g/L). All media used were supplemented with 10% fetal bovine serum (FBS) and were refreshed every two days. Cells were used in experiments or subcultured when they reached 70–80% confluence.
(§2) In 100 µL in 96-well plates, a number of 30,000 LNCaP cells, 15,000 A549 cells, and 7500 normal (BJ) cells were seeded. Because the cells have different sizes and volumes, the purpose of the different seedings was to achieve a confluency of 70–80% after 24 h. All types of cells were further exposed to the synthesized compounds (5a–d and 6a–d) for 24 h, at a concentration ranging from 12.5 to 100 µg/mL. Post-exposure, the media were removed, and the cells were washed with phosphate buffer saline (PBS). Their viability was evaluated using Alamar blue (AB) assay as previously described. Briefly, the cells were incubated with a 200 µM resazurin solution for 4 h. Using a Synergy 2 multi-mode microplate reader, we measured the fluorescence. The measurement was performed at λexcitation = 530/25 nm; λemission = 590/35 nm. We conducted the experiments using three biological replicates, each one including 6 technical replicates. As negative controls (NC), cells exposed to culture medium containing 0.2% DMSO were used. Compared to the NC (100%), the results were expressed as relative values. We used IC50 values for the potency evaluation, and calculated them for each cell line, using the dose-effect curves obtained by fitting the experimental data with a 4-parameter logistic curve.
(§3) Mean values ± standard deviation (SD) values of at least three biological replicates were used to calculate experimental data. One-way analysis of variance (ANOVA) with a post hoc Holm–Sidak test was used to statistically examine the data. Using SigmaPlot 11.0 software (Systat, Software Inc., Chicago, IL, USA), we performed the graphical display and data analysis. From a statistical point of view, the results were considered different, at values of p < 0.05.

[7] = system: normal human foreskin fibroblasts (BJ); assay: Cytotoxicity, Alamar blue assay, BJ cells; type: cell-based; settings: for IC50: Homo sapiens, Fibroblast, 24 h exposure, Alamar blue
Excerpt: as §1, §2, §3

Row | SMILES | % of NO˙ Scavenged [1] [%] | TAC, % of Activity of Trolox [2] [%] | TAC, % of Activity of Ascorbic Acid [2] [%] | RP, % of Activity of Trolox [3] [%] | RP, % of Activity of Ascorbic Acid [3] [%] | CUPRAC, % of Activity of Trolox [4] [%] | CUPRAC, % of Activity of Ascorbic Acid [4] [%] | Ferrous ions Chelation Capacity (%) ([5]; 17.70 µg/mL) | Ferrous ions Chelation Capacity (%) ([5]; 20.59 µg/mL) | Ferrous ions Chelation Capacity (%) ([5]; 29.41 µg/mL) | Ferrous ions Chelation Capacity (%) ([5]; 44.11 µg/mL) | Ferrous ions Chelation Capacity (%) ([5]; 58.82 µg/mL) | Ferrous ions Chelation Capacity (%) ([5]; 88.23 µg/mL) | Ferrous ions Chelation Capacity (%) ([5]; 117.64 µg/mL) | Ferrous ions Chelation Capacity (%) ([5]; 257.46 µg/mL) | Ferrous ions Chelation Capacity (%) ([5]; 343.28 µg/mL) | IC50 [6] [µg/mL] | IC50 [7] [µg/mL] | decrease of cellular viability in BJ cells ([7]; highest concentration tested, 24 h)
1 | C=CCn1c(SCC(=O)NN=Cc2ccc(O)c(O)c2O)nc2ccccc2c1=O [Compound 5a, 2-((3-Allyl-4-oxo-3,4-dihydroquinazolin-2-yl)thio)-N’-(2,3,4-trihydroxybenzylidene)acetohydrazide] | 38.39 | 176.42 | 91.43 | 92.09 | 63.20 | 126.56 | 132.79 | - (- represents less than 5%) | - (- represents less than 5%) | - (- represents less than 5%) | - (- represents less than 5%) | 18.44% | 34.12% | 45.93% | 71.76% | 86.30% | 30.9 | > 100 | 
2 | O=C(CSc1nc2ccccc2c(=O)n1Cc1ccccc1)NN=Cc1ccc(O)c(O)c1O [Compound 5b, 2-((3-Benzyl-4-oxo-3,4-dihydroquinazolin-2-yl)thio)-N’-(2,3,4-trihydroxybenzylidene)acetohydrazide] | 36.75 | 156.96 | 81.34 | 85.68 | 58.80 | 92.75 | 97.31 | - (- represents less than 5%) | - (- represents less than 5%) | - (- represents less than 5%) | - (- represents less than 5%) | - (- represents less than 5%) | - (- represents less than 5%) | - (- represents less than 5%) | 19.02% | 35.16% | 69.5 | > 100 | 
3 | CCn1c(SCC(=O)NN=Cc2ccc(O)c(O)c2O)nc2ccccc2c1=O [Compound 5c, 2-((3-Ethyl-4-oxo-3,4-dihydroquinazolin-2-yl)thio)-N’-(2,3,4-trihydroxybenzylidene)acetohydrazide] | 43.21 | 163.49 | 84.73 | 72.75 | 49.93 | 110.95 | 116.41 | - (- represents less than 5%) | - (- represents less than 5%) | - (- represents less than 5%) | - (- represents less than 5%) | - (- represents less than 5%) | - (- represents less than 5%) | 20.27% | 65.75% | 89.24% | 49.1 | > 100 | approximately 40%
4 | CCCCn1c(SCC(=O)NN=Cc2ccc(O)c(O)c2O)nc2ccccc2c1=O [Compound 5d, 2-((3-Butyl-4-oxo-3,4-dihydroquinazolin-2-yl)thio)-N’-(2,3,4-trihydroxybenzylidene)acetohydrazide] | 35.14 | 117.87 | 61.09 | 72.18 | 49.54 | 106.43 | 111.66 | - (- represents less than 5%) | - (- represents less than 5%) | - (- represents less than 5%) | - (- represents less than 5%) | - (- represents less than 5%) | - (- represents less than 5%) | 58.18% | 71.56% | 80.50% | 42.1 | > 100 | 
5 | C=CCn1c(SCC(=O)NN=C(C)c2ccc(O)cc2O)nc2ccccc2c1=O [Compound 6a, 2-((3-Allyl-4-oxo-3,4-dihydroquinazolin-2-yl)thio)-N’-(1-(2,4-dihydroxyphenyl)ethylidene)acetohydrazide] | 31.82 | 94.38 | 48.91 | 30.73 | 21.09 | 12.83 | 13.46 | - (- represents less than 5%) | - (- represents less than 5%) | - (- represents less than 5%) | - (- represents less than 5%) | - (- represents less than 5%) | - (- represents less than 5%) | - (- represents less than 5%) | - (- represents less than 5%) | - (- represents less than 5%) | 35.7 | > 100 | 
